How the values were obtained:
[1] = Solubility of the active in the dissolution medium; type: physicochemical; settings: acetate buffer pH 4.5 USP + 0.1% sodium lauryl sulfate, 37°C
Description: Drug dissolution of the new solid dispersion formulations of Example 6 and 7 was studied using the paddle apparatus “Apparatus 2” of the USP 28-NF 23 (The United States Pharmacopoeia USP 28 2005) at a temperature of 37±0.5° C. and a paddle speed of 75 rpm. 900 mL of acetate buffer pH 4.5 USP with the addition of 0.1% (m/V) sodium lauryl sulfate as surfactant was used as dissolution medium. An amount of solid dispersion equivalent to 50 mg of the compound of Formula I as base was inserted in each vessel. During the dissolution test samples were drawn through a filter and the dissolved amount of drug substances was determined by UV spectrometry. The determined amount of active was calculated as % (m/m) of total dose (50mg).
Due to the low solubility of the active only about […] of the 50 mg dose are dissolved. The solid dispersions, however, show fast and almost complete dissolution of the active. […] The solid new pharmaceutical compositions of Example 6 and 7, which contain the active in substantially amorphous form, show clear supersaturation compared to the physical mixture of the active and PVP, and no significant recrystallisation is observed for at least 1 hour. […]

[2] = Comparative oral bioavailability in the rat (Example 19); type: in vivo, male Wistar rats; settings: male, Wistar, plasma, 5 mg/kg, oral gavage; for bioavailability: relative to iv bolus 2 mg/kg
Description: A single dose of the compounds of Examples 1, 2, 3, 4, and 5 was administered to each of three fasted male Wistar rats (220-250 g; 6-8 weeks old) orally. Compounds of Examples 1-4 were administered by oral gavage in the formulation described in Table 1. The solid dispersion of Example 5 (1.25 mg drug substance in 5 mg PVP-25) was administered in size 9 capsules. One capsule was administered per rat. Approximately 0.4 mL of whole blood was collected via an indwelling jugular catheter at: 0.25, 0.5, 1, 2, 4, 7, 24, and 48 h post-dose. The blood samples were centrifuged (approx. 5 min.) in order to obtain plasma which was then transferred to the appropriately labeled vials and stored frozen (−20° C.) until analysis for parent drug.
Plasma samples were analyzed via LC/MS/MS for parent drug concentrations and pharmacokinetic parameters were calculated using Watson LIMS.
The dose of 5 mg/kg of the pharmaceutical composition of Example 5 means 5 mg of drug substance (compound of Example 1) per kg of body weight. The relative bioavailabilities in the rat are calculated from the data of an intravenous bolus dose of 2 mg/kg in the same strain of rats, using a solution of the active in a Cremophor RH40:ethanol:water (12.5:12.5:75) vehicle. The plasma exposure in the exposure arm of the suspension in 0.5% tylose solution (9.9% F) reflects a crystalline, micronized drug substance with the following characteristics: 208° C. (onset), 211° C. (peak), ΔH=91.4 J/g.

raf = test: Inhibition of raf kinase; type: biochemical; settings: statement in words, no data
VEGFR-2 = VEGFR-2 (Homo sapiens, UniProt P35968); test: Inhibition of VEGFR-2 kinase; type: biochemical; settings: statement in words, no data
Sequence of VEGFR-2 (P35968 20-1356, species assumed): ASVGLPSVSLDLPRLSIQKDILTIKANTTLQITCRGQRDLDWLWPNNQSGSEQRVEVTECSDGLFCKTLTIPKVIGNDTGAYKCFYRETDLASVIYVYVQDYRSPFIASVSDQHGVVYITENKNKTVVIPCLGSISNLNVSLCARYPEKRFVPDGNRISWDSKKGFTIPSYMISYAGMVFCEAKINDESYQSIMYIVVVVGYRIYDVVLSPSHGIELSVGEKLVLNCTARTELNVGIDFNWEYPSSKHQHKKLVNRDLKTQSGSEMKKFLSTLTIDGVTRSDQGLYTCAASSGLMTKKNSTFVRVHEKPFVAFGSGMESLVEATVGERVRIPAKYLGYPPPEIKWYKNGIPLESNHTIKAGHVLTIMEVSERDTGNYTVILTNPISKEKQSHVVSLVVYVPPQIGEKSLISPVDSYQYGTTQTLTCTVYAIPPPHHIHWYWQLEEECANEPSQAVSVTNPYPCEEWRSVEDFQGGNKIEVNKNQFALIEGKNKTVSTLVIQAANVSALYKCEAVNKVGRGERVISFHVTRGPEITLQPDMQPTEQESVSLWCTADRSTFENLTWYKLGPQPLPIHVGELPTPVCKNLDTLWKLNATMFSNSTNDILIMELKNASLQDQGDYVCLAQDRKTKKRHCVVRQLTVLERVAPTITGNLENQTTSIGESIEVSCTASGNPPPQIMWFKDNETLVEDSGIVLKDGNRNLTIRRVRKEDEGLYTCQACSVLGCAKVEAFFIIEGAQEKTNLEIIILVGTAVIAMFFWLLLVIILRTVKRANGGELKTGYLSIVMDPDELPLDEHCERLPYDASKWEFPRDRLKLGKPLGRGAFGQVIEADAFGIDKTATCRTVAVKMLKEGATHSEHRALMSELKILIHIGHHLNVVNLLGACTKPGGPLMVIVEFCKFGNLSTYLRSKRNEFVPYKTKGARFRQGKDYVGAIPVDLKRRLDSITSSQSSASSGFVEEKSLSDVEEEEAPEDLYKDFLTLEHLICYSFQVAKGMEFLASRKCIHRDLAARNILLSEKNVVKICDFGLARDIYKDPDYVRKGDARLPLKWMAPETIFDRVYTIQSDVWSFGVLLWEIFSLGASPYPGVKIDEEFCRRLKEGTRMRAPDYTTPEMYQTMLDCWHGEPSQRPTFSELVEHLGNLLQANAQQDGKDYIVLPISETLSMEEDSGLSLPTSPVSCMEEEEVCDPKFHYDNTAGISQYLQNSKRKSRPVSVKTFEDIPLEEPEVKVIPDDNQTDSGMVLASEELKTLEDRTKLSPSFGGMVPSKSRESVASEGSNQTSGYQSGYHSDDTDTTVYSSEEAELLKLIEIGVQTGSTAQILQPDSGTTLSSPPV

p38 = test: Inhibition of p38 kinase; type: biochemical; settings: statement in words, no data
PDGFR = test: Inhibition of PDGFR kinase; type: biochemical; settings: statement in words, no data
[3] = po, 0.5% NaCMC and 0.5% Tween 80 in water
[4] = po, vehicle 0.5% NaCMC and 0.5% Tween 80 in water

SMILES	solubility of the active in this medium [1] [mg/900 mL]	bioavailability ([2]; oral, 0.5% tylose in water) [%]	bioavailability [2, 3] [%]	bioavailability ([2]; po, 0.5% tylose in water) [%]	AUC(0-inf) [2, 4] [ng·h/mL]	AUC(0-inf) ([2]; po, vehicle 0.5% tylose in water) [ng·h/mL]	inhibition of raf kinase (raf)	inhibition of VEGFR-2 kinase (VEGFR-2)	inhibition of p38 kinase (p38)	inhibition of PDGFR kinase (PDGFR)
CNC(=O)c1cc(Oc2ccc(NC(=O)Nc3ccc(Cl)c(C(F)(F)F)c3)c(F)c2)ccn1 [Example 1, 4{4-[3-(4-chloro-3-trifluoromethylphenyl)-ureido]-3-fluorophenoxy}-pyridine-2-carboxylic acid methylamide]	2.3	9.9	13	10	21800	17000	potent inhibitor	potent inhibitor	potent inhibitor	potent inhibitor
CNC(=O)c1cc(Oc2ccc(NC(=O)Nc3ccc(Cl)c(C(F)(F)F)c3)c(F)c2)ccn1.Cl [Example 2, 4{4-[3-(4-chloro-3-trifluoromethylphenyl)-ureido]-3-fluorophenoxy}-pyridine-2-carboxylic acid methylamide hydrochloride]			7		12100					
CNC(=O)c1cc(Oc2ccc(NC(=O)Nc3ccc(Cl)c(C(F)(F)F)c3)c(F)c2)ccn1.CS(=O)(=O)O [Example 3, 4{4-[3-(4-chloro-3-trifluoromethylphenyl)-ureido]-3-fluorophenoxy}-pyridine-2-carboxylic acid methylamide mesylate]			10		16800					
CNC(=O)c1cc(Oc2ccc(NC(=O)Nc3ccc(Cl)c(C(F)(F)F)c3)c(F)c2)ccn1.O=S(=O)(O)c1ccccc1 [Example 4, 4{4-[3-(4-chloro-3-trifluoromethylphenyl)-ureido]-3-fluorophenoxy}-pyridine-2-carboxylic acid methylamide phenylsulfonate]			10		15800					
